Test results reported in US20240252488A1 (KOREA RESEARCH INSTITUTE OF CHEMICAL TECHNOLOGY, priority 2020, published 2024).
pKd: −log10 of the molar value.

What was measured:
FADD−/− Jurkat cells = test: Necroptosis inhibition assay, TNF-α-induced necroptosis (CellTiter-Glo 2.0); assay type: cell-based, human; conditions: TNF-α 15 ng/mL; for Necroptosis inhibition assay (Rescue %) 1 μM: compound 1 μM; for Necroptosis inhibition assay (Rescue %) 10 μM: compound 10 μM
Method in brief: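 Cmpd 0.1/1/10 μM final, 30 min RT preincubation; TNF-α 15 ng/mL final; 20–24 h, 37° C, 5% CO2. Readout: ATP luminescence (reagent 1:3 in PBS), 0.5 s/well. Cytotoxicity and % necroptosis inhibition calculated from signal.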

MLKL [1] = target: T1, MLKL (Homo sapiens, UniProt Q8NB16); test: Measurement of binding affinity with MLKL receptor (competitive binding assay, Kd); set-up: made in house; host or cells: HEK 293 cell line (T7 phage in E. coli BL21-derived host is also described)
T1 sequence (Q8NB16 1-471): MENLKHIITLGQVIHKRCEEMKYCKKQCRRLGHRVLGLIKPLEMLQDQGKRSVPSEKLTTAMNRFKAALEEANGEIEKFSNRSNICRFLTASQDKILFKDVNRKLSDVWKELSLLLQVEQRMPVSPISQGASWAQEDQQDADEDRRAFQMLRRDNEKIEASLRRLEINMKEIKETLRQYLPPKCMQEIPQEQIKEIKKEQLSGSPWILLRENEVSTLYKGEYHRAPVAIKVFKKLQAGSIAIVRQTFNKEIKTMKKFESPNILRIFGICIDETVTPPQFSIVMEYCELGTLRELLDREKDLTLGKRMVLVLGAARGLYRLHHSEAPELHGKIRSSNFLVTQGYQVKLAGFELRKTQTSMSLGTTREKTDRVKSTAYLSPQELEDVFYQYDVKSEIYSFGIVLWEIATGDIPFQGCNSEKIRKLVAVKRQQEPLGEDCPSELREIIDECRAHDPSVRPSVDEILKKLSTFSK
Method in brief: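 Kd comes from a bead-based competition format: compound-dependent loss of DNA-tagged, HEK 293-expressed MLKL capture, measured as eluate kinase by qPCR. Final DMSO is 0.9%.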

MLKL [2] = target: T1, MLKL; test: MLKL degradation assay in HepG2 cell line (western blot); assay type: cell-based; set-up: endogenous in cells; host or cells: HepG2 or HaCaT; conditions: cell line not given; for Degradation assay (Degradation %) 1 μM: compound 1 μM; for Degradation assay (Degradation %) 10 μM: compound 10 μM
Method in brief: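 HepG2, cpd final 1 or 10 μM, 20-24 h, 37 °C/5% CO2; RIPA lysis, BCA-normalized, 10-15 μg/lane SDS-PAGE, western blot, ECL read-out.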

SMILES	Necroptosis inhibition assay (Rescue %) 1 μM (FADD−/− Jurkat cells)	Necroptosis inhibition assay (Rescue %) 10 μM (FADD−/− Jurkat cells)	pKd (MLKL [1])	Degradation assay (Degradation %) 1 μM (MLKL [2])	Degradation assay (Degradation %) 10 μM (MLKL [2])
Nc1ncc(-c2cnn(C3CCN(CCC4CCN(C(=O)COc5cccc6c5C(=O)N(C5CCC(=O)NC5=O)C6=O)CC4)CC3)c2)cc1C(=O)OC(C(=O)Nc1ccc(F)cc1)c1ccccc1 (stereo not shown) [TDH-301, 2-((4-fluorophenyl)amino)-2-oxo-1-phenylethyl 2-amino-5-(1-(1-(2-(1-(2-((2-(2,6-dioxopiperidin-3-yl)-1,3-dioxoisoindolin-4-yl)oxy)acetyl)piperidin-4-yl)ethyl)piperidin-4-yl)-1H-pyrazol-4-yl)nicotinate]	61.06%	26.7%	8.54	76.3%	89.97%
Nc1ncc(-c2cnn(C3CCN(CCC4CCN(C(=O)CNc5ccc6c(c5)C(=O)N(C5CCC(=O)NC5=O)C6=O)CC4)CC3)c2)cc1C(=O)OC(C(=O)Nc1ccc(F)cc1)c1ccccc1 (stereo not shown) [TDH-302, 2-((4-fluorophenyl)amino)-2-oxo-1-phenylethyl 2-amino-5-(1-(1-(2-(1-((2-(2,6-dioxopiperidin-3-yl)-1,3-dioxoisoindolin-5-yl)glycyl)piperidin-4-yl)ethyl)piperidin-4-yl)-1H-pyrazol-4-yl)nicotinate]	54.15%	51.56%	8.07	96.64%	85.06%
Nc1ncc(-c2cnn(C3CCN(CCC4CCN(C(=O)CNc5cccc6c5C(=O)N(C5CCC(=O)NC5=O)C6=O)CC4)CC3)c2)cc1C(=O)OC(C(=O)Nc1ccc(F)cc1)c1ccccc1 (stereo not shown) [TDH-303, 2-((4-fluorophenyl)amino)-2-oxo-1-phenylethyl 2-amino-5-(1-(1-(2-(1-((2-(2,6-dioxopiperidin-3-yl)-1,3-dioxoisoindolin-4-yl)glycyl)piperidin-4-yl)ethyl)piperidin-4-yl)-1H-pyrazol-4-yl)nicotinate]	10.34%	17.69%	7.89	82.82%	82.05%
Nc1ncc(-c2cnn(C3CCN(CC4CN(C(=O)C5CCN(c6cccc7c6C(=O)N(C6CCC(=O)NC6=O)C7=O)CC5)CCO4)CC3)c2)nc1C(=O)OC(C(=O)Nc1ccc(F)cc1)c1ccccc1 (stereo not shown) [TDH-304, 2-((4-fluorophenyl)amino)-2-oxo-1-phenylethyl 3-amino-6-(1-(1-((4-(1-(2-(2,6-dioxopiperidin-3-yl)-1,3-dioxoisoindolin-4-yl)piperidine-4-carbonyl)morpholin-2-yl)methyl)piperidin-4-yl)-1H-pyrazol-4-yl)pyrazine-2-carboxylate]	38.26%	35.22%	8.54	85.02%	84.91%
Nc1ncc(-c2cnn(C3CCN(CC4CN(C(=O)C5CCN(c6ccc7c(c6)C(=O)N(C6CCC(=O)NC6=O)C7=O)CC5)CCO4)CC3)c2)nc1C(=O)OC(C(=O)Nc1ccc(F)cc1)c1ccccc1 (stereo not shown) [TDH-305, 2-((4-fluorophenyl)amino)-2-oxo-1-phenylethyl 3-amino-6-(1-(1-((4-(1-(2-(2,6-dioxopiperidin-3-yl)-1,3-dioxoisoindolin-5-yl)piperidine-4-carbonyl)morpholin-2-yl)methyl)piperidin-4-yl)-1H-pyrazol-4-yl)pyrazine-2-carboxylate]	66.84%	52.42%	8.55	72.47%	50.39%
